Source: ChEMBL document CHEMBL4732090, “Preparation of new 1,3-dibenzyl tetrahydropyridinylidene ammonium salts and their antimicrobial and anticellular activities” (Eur J Med Chem, 2021)

Key:
Plasmodium falciparum [1] = assay: Antiplasmodial activity against Plasmodium falciparum NF54 erythrocytic stages assessed as reduction in [3H]hypoxanthine incorporation measured after 48 hrs by liquid scintillation counting method; type: functional, organism-based
[2] = Selectivity index, ratio of IC50 for rat L6 cells to IC50 for Plasmodium falciparum NF54; type: toxicity; conditions: read-out: Ratio IC50
[3] = tested on: Trypanosoma brucei rhodesiense; assay: Trypanocidal activity against Trypanosoma brucei rhodesiense STIB900 incubated for 70 hrs by Alamar blue assay; type: functional, organism-based; conditions: STIB900, 70 h
[4] = Selectivity index, ratio of IC50 for rat L6 cells to IC50 for Trypanosoma brucei rhodesiense STIB900; type: toxicity; conditions: read-out: Ratio IC50
L6 = assay: Cytotoxicity against rat L6 cells after 70 hrs by Alamar blue assay; type: cell-based; conditions: L6, 70 h
Staphylococcus aureus = assay: Antibacterial activity against Staphylococcus aureus ATCC 29213 assessed as diameter of inhibition zone at 10 mg/ml by disk diffusion assay; type: functional; conditions: read-out: DIZ
[5] = tested on: Staphylococcus epidermidis; assay: Antibacterial activity against Staphylococcus epidermis ATCC 12228 assessed as diameter of inhibition zone at 10 mg/ml by disk diffusion assay; type: functional; conditions: read-out: DIZ
Escherichia coli = assay: Antibacterial activity against Escherichia coli ATCC 25922 assessed as diameter of inhibition zone at 10 mg/ml by disk diffusion assay; type: functional; conditions: read-out: DIZ
Pseudomonas aeruginosa = assay: Antibacterial activity against Pseudomonas aeruginosa ATCC 27853 assessed as diameter of inhibition zone at 10 mg/ml by disk diffusion assay; type: functional; conditions: read-out: DIZ
Candida albicans = assay: Antifungal activity against Candida albicans ATCC 90028 assessed as diameter of inhibition zone at 10 mg/ml by disk diffusion assay; type: functional; conditions: read-out: DIZ
Plasmodium falciparum [6] = assay: Antiplasmodial activity against chloroquine and pyrimethamine resistant Plasmodium falciparum K1 strain; type: functional, organism-based
[7] = Selectivity index, ratio of IC50 for rat L6 cells to IC50 for chloroquine and pyrimethamine resistant Plasmodium falciparum K1; type: toxicity; conditions: read-out: Ratio IC50
HCT-116 = assay: Cytotoxicity against human HCT-116 cells assessed as inhibition of cell growth at 50 uM after 72 hrs by XTT assay relative to control; type: functional
U-251 = assay: Cytotoxicity against human U-251 cells assessed as inhibition of cell growth at 50 uM after 72 hrs by XTT assay relative to control; type: functional

| Compound | IC50 (Plasmodium falciparum [1]) [nM] | selectivity ratio [2] | IC50 [3] [nM] | selectivity ratio [4] | IC50 (L6; read-out: IC50) [nM] | zone of inhibition at 10000 µg/mL (Staphylococcus aureus) [mm] | zone of inhibition at 10000 µg/mL [5] [mm] | zone of inhibition at 10000 µg/mL (Escherichia coli) [mm] | zone of inhibition at 10000 µg/mL (Pseudomonas aeruginosa) [mm] | zone of inhibition at 10000 µg/mL (Candida albicans) [mm] | IC50 (Plasmodium falciparum [6]) [nM] | selectivity ratio [7] | inhibition at 50 µM (HCT-116) [%] | inhibition at 50 µM (U-251) [%] | IC50 (L6) [nM] |
| --- | --- | --- | --- | --- | --- | --- | --- | --- | --- | --- | --- | --- | --- | --- | --- |
| CC1(C)C(Cc2ccccc2C(F)(F)F)C(=[N+]2CCCC2)C=CN1Cc1ccccc1 (racemic) | 85 | 912 | 100 | 776 | 77600 | 23 | 22 | 13 | 0 | 10 |  |  |  |  |  |
| Nc1nc(N)nc(Nc2ccc([As]3SCC(CO)S3)cc2)n1 (stereo not given) [MELARSOPROL] |  |  |  | 2000 |  |  |  |  |  |  |  |  |  |  |  |
| CC1(C)C(Cc2ccc(C#N)cc2)C(=[N+]2CCCC2)C=CN1Cc1ccccc1 (stereo not given) | 17 | > 12700 | 11000 | > 19.6 | > 215000 | 14 | 12 | 8 | 5 | 0 | 120 | > 1790 |  |  |  |
| CC1(C)S[C@@H]2[C@H](NC(=O)[C@H](N)c3ccccc3)C(=O)N2[C@H]1C(=O)O [AMPICILLIN] |  |  |  |  |  |  | 45 | 15 | 0 | 0 |  |  |  |  |  |
| CCN(CC)CCCC(C)Nc1ccnc2cc(Cl)ccc12 (stereo not given) [CHLOROQUINE] |  |  |  |  | 117000 |  |  |  |  |  |  |  |  |  |  |
| CC(C)c1ccc(CC2C(=[N+]3CCCC3)C=CN(Cc3ccccc3)C2(C)C)cc1 (racemic) | 39 | 64.4 | 42 | 59.8 | 2510 | 25 | 29 | 10 | 6 | 21 |  |  | 100 | 100 |  |
| COc1cc(Cc2cnc(N)nc2N)cc(OC)c1OC [TRIMETHOPRIM] |  |  |  |  |  | 22 |  |  | 0 | 0 |  |  |  |  |  |
| CC1(C)C(Cc2c(Cl)cccc2Cl)C(=[N+]2CCCC2)C=CN1Cc1c(Cl)cccc1Cl (racemic) | 38 | 23.9 | 24 | 37.9 | 910 | 23 | 34 | 14 | 6 | 25 |  |  | 100 | 100 |  |
| CC1(C)C(Cc2ccccc2)C(=[N+]2CCCC2)C=CN1Cc1ccc(Cl)cc1 (racemic) | 30 | 1260 | 120 | 316 | 37900 | 22 | 29 | 13 | 0 | 20 |  |  |  |  |  |
| CC1(C)C(Cc2c(Cl)cccc2Cl)C(=[N+]2CCCC2)C=CN1Cc1ccccc1 (racemic) | 31 | 483 | 63 | 238 | 15000 | 23 | 26 | 10 | 7 | 10 |  |  |  |  |  |
| CC1(C)C(Cc2ccccc2)C(=[N+]2CCCCC2)C=CN1Cc1ccccc1 (racemic) | 15 | 1640 | 44 | 558 | 24600 | 22 | 28 | 10 | 0 | 0 | 24 | 1024 |  |  |  |
| CC1(C)C(Cc2ccccc2)C(=[N+]2CCCC2)C=CN1Cc1ccccc1 (racemic) | 32 | 1530 | 130 | 376 | 48800 | 21 | 25 | 12 | 0 | 0 | 55 | 888 |  |  |  |
| CC1(C)C(Cc2ccc(Cl)cc2)C(=[N+]2CCCC2)C=CN1Cc1ccccc1 (racemic) | 17 | 5260 | 500 | 179 | 89500 | 24 | 21 | 8 | 0 | 11 |  |  |  |  |  |
| CC1(C)C(Cc2ccc(Cl)cc2Cl)C(=[N+]2CCCC2)C=CN1Cc1ccccc1 (racemic) | 18 | 1450 | 110 | 237 | 26100 | 22 | 26 | 12 | 0 | 15 |  |  |  |  |  |
| CC1(C)C(Cc2ccc([N+](=O)[O-])cc2)C(=[N+]2CCCC2)C=CN1Cc1ccccc1 (racemic) | 43 | 4800 | 5450 | 37.9 | 206000 | 15 | 18 | 11 | 0 | 0 |  |  |  |  |  |
| O=C(O)c1cn(C2CC2)c2cc(N3CCNCC3)c(F)cc2c1=O [CIPROFLOXACIN] |  |  |  |  |  | 14 |  |  | 0 | 0 |  |  |  |  |  |
| CC1(C)C(Cc2ccc(Br)cc2)C(=[N+]2CCCC2)C=CN1Cc1ccccc1 (racemic) | 7.7 | 4480 | 180 | 192 | 34500 | 22 | 25 | 11 | 0 | 13 |  |  |  |  |  |
| COc1cc([C@@H]2c3cc4c(cc3[C@H](O)[C@H]3COC(=O)[C@H]23)OCO4)cc(OC)c1OC [PODOFILOX] |  |  |  |  |  |  |  |  |  |  |  |  |  |  | 12 |
| CC1(C)C(Cc2ccc(C(F)(F)F)cc2)C(=[N+]2CCCC2)C=CN1Cc1ccccc1 (racemic) | 26 | 3300 | 320 | 268 | 85900 | 22 | 24 | 11 | 0 | 15 |  |  |  |  |  |
| C[C@@H]1CC[C@H]2[C@@H](C)C(=O)O[C@@H]3O[C@@]4(C)CC[C@@H]1[C@]32OO4 [ARTEMISININ] |  |  |  |  |  |  |  |  |  |  | 3.4 | 132000 |  |  |  |
| CC1(C)C(Cc2ccccc2)C(=[N+]2CCCC2)C=CN1Cc1ccc([N+](=O)[O-])cc1 (racemic) | 89 | 2320 | 1030 | 200 | 206000 | 12 | 14 | 7 | 0 | 0 |  |  |  |  |  |
